# From ChEMBL document CHEMBL1201862, “PubChem BioAssay data set” (2004)
# Active and inactive are the calls of the source.
# What was measured:
# [1] = target: T1, Mannose-6-phosphate isomerase (Homo sapiens, UniProt P34949); experiment: Confirmation of compounds inhibiting phosphomannose isomerase (PMI) via a fluorescence intensity assay using a high concentration of mannose 6-phosphate. [Related pubchem assays (depositor defined):AID1209, AID1220, AID1545, AID1553, AID1620]
# T1 sequence (P34949 whole entry): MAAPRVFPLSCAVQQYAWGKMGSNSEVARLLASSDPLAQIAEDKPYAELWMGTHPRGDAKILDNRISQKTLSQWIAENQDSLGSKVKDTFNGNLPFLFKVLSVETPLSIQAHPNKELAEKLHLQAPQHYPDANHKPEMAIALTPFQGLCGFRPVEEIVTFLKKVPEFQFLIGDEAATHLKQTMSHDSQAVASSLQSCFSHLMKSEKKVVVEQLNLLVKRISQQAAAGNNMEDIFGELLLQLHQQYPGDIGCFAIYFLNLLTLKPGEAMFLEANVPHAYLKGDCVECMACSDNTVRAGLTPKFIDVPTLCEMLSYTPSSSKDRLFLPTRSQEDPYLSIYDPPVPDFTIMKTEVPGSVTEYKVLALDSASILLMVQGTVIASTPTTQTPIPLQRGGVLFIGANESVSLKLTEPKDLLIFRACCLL
# [2] = target: T1, Mannose-6-phosphate isomerase; experiment: PMI enzyme inhibitors, confirmation, biochemical, fluorescence intensity (AID 1535)
# [3] = target: Alkaline phosphatase, placental type (Homo sapiens, UniProt P05187); experiment: PLAP enzyme inhibitors, confirmation, biochemical, luminescence (AID 1512); format: functional
# Alkaline phosphatase, placental type, sequence (P05187 whole entry): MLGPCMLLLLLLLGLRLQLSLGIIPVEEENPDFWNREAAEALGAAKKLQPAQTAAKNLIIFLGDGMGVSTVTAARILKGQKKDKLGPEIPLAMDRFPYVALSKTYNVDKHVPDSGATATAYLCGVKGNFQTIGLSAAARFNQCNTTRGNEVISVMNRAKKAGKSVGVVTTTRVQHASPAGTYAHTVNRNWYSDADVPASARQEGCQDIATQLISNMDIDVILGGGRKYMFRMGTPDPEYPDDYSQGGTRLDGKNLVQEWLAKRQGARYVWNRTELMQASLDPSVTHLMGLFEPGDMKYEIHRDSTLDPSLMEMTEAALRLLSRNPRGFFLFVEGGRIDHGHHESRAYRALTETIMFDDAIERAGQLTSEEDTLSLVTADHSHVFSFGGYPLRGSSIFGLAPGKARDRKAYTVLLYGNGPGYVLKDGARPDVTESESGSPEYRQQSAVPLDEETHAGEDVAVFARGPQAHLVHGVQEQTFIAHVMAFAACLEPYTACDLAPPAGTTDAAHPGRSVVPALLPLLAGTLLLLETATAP
# [4] = microbe, parasite or virus in culture; format: functional; details: Mycobacterium tuberculosis
# [5] = target: T2, Kappa-type opioid receptor (Homo sapiens, UniProt P41145); format: functional
# T2 sequence (P41145 whole entry): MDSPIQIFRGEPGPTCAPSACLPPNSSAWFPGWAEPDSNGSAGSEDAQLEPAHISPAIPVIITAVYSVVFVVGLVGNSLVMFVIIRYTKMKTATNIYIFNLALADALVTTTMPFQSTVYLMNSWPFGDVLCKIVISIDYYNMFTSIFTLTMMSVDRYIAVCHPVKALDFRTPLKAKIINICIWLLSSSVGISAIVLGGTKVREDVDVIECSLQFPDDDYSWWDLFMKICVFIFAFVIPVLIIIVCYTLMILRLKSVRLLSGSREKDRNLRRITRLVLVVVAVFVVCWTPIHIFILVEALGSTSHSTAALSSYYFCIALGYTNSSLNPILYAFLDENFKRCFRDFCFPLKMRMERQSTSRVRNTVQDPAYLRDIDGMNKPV
# [6] = target: Beta-galactosidase (Escherichia coli, UniProt Q8VNN2); format: functional
# Beta-galactosidase, sequence (Q8VNN2 whole entry): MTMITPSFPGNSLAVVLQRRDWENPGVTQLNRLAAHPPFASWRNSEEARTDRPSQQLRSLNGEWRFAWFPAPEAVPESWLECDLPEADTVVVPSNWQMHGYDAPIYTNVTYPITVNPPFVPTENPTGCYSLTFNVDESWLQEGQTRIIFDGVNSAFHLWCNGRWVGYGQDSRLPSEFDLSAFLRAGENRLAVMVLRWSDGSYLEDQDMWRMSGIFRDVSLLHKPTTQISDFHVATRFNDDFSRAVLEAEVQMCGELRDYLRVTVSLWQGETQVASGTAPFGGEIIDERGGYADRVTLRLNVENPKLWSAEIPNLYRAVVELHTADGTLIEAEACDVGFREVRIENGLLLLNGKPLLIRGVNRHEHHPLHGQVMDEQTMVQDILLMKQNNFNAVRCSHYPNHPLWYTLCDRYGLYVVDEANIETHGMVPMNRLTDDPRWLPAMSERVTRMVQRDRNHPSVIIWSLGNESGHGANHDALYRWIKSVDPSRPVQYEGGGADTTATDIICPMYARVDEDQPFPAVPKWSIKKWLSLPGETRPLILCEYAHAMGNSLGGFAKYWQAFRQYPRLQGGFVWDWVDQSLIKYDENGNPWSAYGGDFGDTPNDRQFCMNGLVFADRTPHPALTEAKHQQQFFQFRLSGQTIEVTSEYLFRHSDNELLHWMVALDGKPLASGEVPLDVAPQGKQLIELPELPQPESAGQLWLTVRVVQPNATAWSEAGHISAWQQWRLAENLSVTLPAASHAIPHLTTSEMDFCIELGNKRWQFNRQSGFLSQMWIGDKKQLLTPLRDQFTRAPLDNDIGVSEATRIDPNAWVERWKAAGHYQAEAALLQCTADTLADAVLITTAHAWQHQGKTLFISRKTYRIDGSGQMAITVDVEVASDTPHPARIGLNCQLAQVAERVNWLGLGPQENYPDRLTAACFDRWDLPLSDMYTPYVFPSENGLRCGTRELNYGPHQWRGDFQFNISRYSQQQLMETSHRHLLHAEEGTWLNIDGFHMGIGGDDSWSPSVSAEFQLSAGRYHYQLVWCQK
# [7] = target: T2, Kappa-type opioid receptor; format: functional; remark: listed apart in the source
# [8] = THP-1 cell cytotoxicity, dose response, cytotoxicity control for non-replicating M. tuberculosis project (AID 489025); format: functional
# [9] = cells; format: functional
# [10] = target: T3, Caspase-3 (Homo sapiens, UniProt P42574); experiment: procaspase-3 activators, dose response, biochemical, absorbance (AID 489014)
# T3 sequence (P42574 whole entry): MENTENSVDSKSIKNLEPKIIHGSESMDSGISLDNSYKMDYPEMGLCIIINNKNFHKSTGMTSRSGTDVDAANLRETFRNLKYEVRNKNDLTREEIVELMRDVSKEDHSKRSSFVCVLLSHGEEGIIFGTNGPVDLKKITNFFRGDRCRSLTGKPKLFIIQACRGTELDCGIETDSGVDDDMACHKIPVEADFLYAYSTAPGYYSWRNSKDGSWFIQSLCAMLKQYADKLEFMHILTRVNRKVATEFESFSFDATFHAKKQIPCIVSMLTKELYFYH
# [11] = Luminescence Cell-Based Dose Retest to Confirm Inhibitors of Cancer Stem Cells. [Related pubchem assays (depositor defined):AID2717, AID2721]; format: functional, Homo sapiens; details: Homo sapiens
# [12] = target: Caspase-7 (Homo sapiens, UniProt P55210); experiment: procaspase-7 activators, dose response, counter-screen for procaspase-3 activator project, biochemical, absorbance (AID 489013)
# Caspase-7, sequence (P55210 24-198 limits assumed): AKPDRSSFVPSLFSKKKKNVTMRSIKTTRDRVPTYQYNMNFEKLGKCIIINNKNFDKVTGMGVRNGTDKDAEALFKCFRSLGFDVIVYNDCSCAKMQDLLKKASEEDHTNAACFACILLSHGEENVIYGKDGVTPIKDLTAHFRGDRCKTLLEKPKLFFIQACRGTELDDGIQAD
# Caspase-7, sequence (P55210 207-303 limits assumed): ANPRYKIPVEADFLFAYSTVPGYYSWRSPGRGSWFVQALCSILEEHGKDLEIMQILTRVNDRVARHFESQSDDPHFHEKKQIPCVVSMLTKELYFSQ
# [13] = inhibitors of intracellular T. cruzi replication, confirmation, NIH3T3 host cells, beta-gal luminescence (AID 2044); format: functional, cell-based;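 further: intracellular parasites grown in NIH/3T3 mouse fibroblasts as host cells; luminescent beta-galactosidase reporter signal from transgenic T. cruzi replicating inside host cells; inhibitors lower the luminescence signal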
# [14] = cytotoxicity toward NIH3T3 fibroblasts, dose response, counter-screen, cell-based, ATP luminescence, mouse fibroblasts (AID 2010); format: functional;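 further: cells exposed to compound for about 90 hours before reading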
# [15] = target: T4, G-protein coupled receptor 55 (Homo sapiens, UniProt Q9Y2T6); experiment: GPR55 agonists via beta-arrestin recruitment, primary screen, imaging, U2OS cells, beta-arrestin-GFP redistribution (AID 1961); format: functional
# T4 sequence (Q9Y2T6 whole entry): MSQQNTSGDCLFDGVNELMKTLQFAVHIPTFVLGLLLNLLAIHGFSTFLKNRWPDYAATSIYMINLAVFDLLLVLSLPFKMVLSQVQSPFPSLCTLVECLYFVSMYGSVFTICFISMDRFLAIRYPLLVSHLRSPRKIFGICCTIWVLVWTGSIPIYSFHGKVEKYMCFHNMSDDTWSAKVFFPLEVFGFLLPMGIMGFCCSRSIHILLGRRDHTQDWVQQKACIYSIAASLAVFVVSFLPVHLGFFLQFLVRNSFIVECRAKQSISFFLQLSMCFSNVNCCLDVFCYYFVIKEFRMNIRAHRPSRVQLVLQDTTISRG
# [16] = test system: Vero; experiment: cells; format: functional, cell-based; details: Chlorocebus sabaeus
# [17] = test system: Vero; experiment: cells; format: functional; details: Chlorocebus sabaeus
# [18] = target: Hexokinase (Trypanosoma brucei, UniProt Q38C41); experiment: Confirmation assay for inhibitors of Trypanosoma brucei hexokinase 1-Analogue-first series. [Related pubchem assays (depositor defined):AID1430, AID1632, AID2516, AID2560, AID2579, AID2600, AID449725, AID492951]; format: functional
# Hexokinase, sequence (Q38C41 whole entry): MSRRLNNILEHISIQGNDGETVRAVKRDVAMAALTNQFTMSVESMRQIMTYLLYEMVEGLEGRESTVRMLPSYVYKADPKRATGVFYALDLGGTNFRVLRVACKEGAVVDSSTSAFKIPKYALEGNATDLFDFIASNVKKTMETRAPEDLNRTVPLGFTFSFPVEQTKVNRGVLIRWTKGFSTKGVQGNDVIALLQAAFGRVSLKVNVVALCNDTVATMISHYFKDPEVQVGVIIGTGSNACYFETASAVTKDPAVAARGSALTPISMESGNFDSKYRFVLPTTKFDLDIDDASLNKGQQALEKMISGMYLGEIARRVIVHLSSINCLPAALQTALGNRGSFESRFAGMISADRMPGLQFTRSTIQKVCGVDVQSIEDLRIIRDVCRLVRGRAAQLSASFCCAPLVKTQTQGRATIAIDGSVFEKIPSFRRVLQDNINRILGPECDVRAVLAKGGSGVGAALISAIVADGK
# [19] = target: Glutathione S-transferase omega-1 (Homo sapiens, UniProt P78417); experiment: GSTO1 inhibitor potency, recombinant enzyme, late-stage follow-up, biochemical, SE-Rh probe, in-gel fluorescence, powder samples, set 2 (AID 463142); format: functional
# Glutathione S-transferase omega-1, sequence (P78417 whole entry): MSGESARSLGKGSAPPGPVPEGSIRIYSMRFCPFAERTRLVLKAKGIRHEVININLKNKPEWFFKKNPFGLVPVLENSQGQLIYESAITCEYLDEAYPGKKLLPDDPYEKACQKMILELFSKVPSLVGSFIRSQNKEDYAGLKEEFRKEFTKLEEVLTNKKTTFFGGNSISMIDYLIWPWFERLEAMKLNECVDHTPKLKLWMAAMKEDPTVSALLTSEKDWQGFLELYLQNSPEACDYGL
# [20] = target: T5, Sphingosine 1-phosphate receptor 4 (Homo sapiens, UniProt O95977); experiment: Late-stage fluorescence dose response cell-based assay to identify agonists of the Sphingosine 1-Phosphate Receptor 4 (S1P4): purchased compounds EC50. [Related pubchem assays (depositor defined):AID1509, AID1523, AID1563, AID1686, AID1701, AID1801]; format: functional
# T5 sequence (O95977 whole entry): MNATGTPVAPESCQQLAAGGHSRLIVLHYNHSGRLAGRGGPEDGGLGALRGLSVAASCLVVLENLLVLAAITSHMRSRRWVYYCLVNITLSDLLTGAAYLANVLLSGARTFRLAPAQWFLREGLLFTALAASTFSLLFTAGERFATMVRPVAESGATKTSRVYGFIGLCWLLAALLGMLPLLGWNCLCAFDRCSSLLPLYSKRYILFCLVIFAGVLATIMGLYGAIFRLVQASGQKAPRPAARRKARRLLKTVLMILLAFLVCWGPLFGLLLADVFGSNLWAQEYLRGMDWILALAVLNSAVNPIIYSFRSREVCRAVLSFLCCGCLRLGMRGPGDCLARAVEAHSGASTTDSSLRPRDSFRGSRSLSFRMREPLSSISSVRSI
# [21] = target: DNA damage-inducible transcript 3 protein (Mus musculus, UniProt P35639); format: functional, Cricetulus griseus
# DNA damage-inducible transcript 3 protein, sequence (P35639 whole entry): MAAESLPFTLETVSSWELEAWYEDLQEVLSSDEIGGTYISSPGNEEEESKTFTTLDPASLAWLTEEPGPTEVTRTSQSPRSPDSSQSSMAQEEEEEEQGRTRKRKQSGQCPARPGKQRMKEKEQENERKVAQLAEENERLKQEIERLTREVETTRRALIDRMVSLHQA
# [22] = target: T6, X-box-binding protein 1 (Homo sapiens, UniProt P17861); format: functional, Cricetulus griseus;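 further: confirmatory dose-response counter-screen serving a CHOP assay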
# T6 sequence (P17861 whole entry): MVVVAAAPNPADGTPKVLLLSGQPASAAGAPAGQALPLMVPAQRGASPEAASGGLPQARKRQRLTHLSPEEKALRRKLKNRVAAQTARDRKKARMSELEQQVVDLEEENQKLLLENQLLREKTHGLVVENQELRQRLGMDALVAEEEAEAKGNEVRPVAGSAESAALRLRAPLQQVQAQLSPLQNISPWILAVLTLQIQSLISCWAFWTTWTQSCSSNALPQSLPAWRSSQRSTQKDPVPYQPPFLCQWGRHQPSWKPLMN
# [23] = test system: H9c2; experiment: cells; format: functional, cell-based; details: Rattus norvegicus, H9c2, Myocardium;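 further: confirmatory concentration-response retest of ultra-high-throughput screening hits for modulation of myocardial damage; cell death induced by hydrogen peroxide oxidative stress; compound pretreatment for 60 min then peroxide exposure for 2 h; potency is for protecting the cells against peroxide damage rather than for killing them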
# [24] = target: T4, G-protein coupled receptor 55; experiment: GPR55 antagonists blocking LPI-driven arrestin recruitment, primary screen, imaging, U2OS, beta-arrestin-GFP, LPI agonist (AID 2013); format: functional;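 further: antagonist potency measured as reduced agonist-driven arrestin aggregation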
# 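Wherever AC50 is given: cells exposed to compound for roughly 70 hours or longer before luminescence read.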
structure (smiles),measurement,setting,value
C=CCN1C(=O)/C(=N\Nc2ccccc2O)c2ccccc21,IC50,[1],> 100 µM (inactive)
same,IC50,[2],> 100 µM (inactive)
same,IC50,[3],> 100 µM (inactive)
CC(C)(C)NC(=O)C(=O)NNC(=O)c1ccc(C(C)(C)C)cc1,CC50,[4],> 40 µM (active)
same,IC50,[5],> 31.5 µM (inactive)
same,EC50,[6],> 31.5 µM (inactive)
same,IC50,[7],> 32 µM
same,CC50,[8],> 40 µM (active)
same,IC50,[9],19.4 µM (active)
COc1ccc(-c2sc3ccc(OC)cc3c2C#Cc2ccccn2)cc1,EC50,[10],> 85.2 µM (inactive)
same,AC50,[11],3 µM (active)
same,EC50,[12],> 85.2 µM (inactive)
Cc1ccc(C(=O)C(C(=O)/C=C/c2ccccc2)=C2SCCCS2)cc1,EC50,[13],0.99 µM (active)
same,EC50,[14],10.3 µM (active)
same,EC50,[15],3.63 µM (active)
same,AC50,[11],1.24 µM (active)
same,IC50,[16],7.69 µM (active)
same,CC50,[17],> 25 µM (active)
O=c1c2ccc(F)cc2sn1Cc1ccccc1,IC50,[18],> 25 µM (inactive)
O=C(NC1CCCCC1)C(c1cccnc1)N(C(=O)CCl)c1ccc(Cl)c(Cl)c1 (stereo not given),IC50,[19],0.045 µM (active)
Cc1ccc(Cn2nc(C)c(C(=O)OC(C)C(=O)NCc3ccccc3)c2Cl)cc1 (stereo not given),EC50,[20],> 50 µM (inactive)
CCOC(=O)c1c(C)[nH]c(O)c1/C=N/c1ccc(Cl)cc1,Absolute IC50 (CHOP),[21],10 µM
same,Absolute IC50 (XBP1),[22],10 µM
same,IC50,[23],13.8 µM (active)
CCOC(=O)C1=C(C)N=C(C)/C(=C(\O)OCC)C1c1ccc(Br)o1 (stereo not given),IC50,[24],2.42 µM (active)
